Values joined by “and” are separate entries in the source; they are usually repeats but may differ in a detail not shown here. Equal values may be shown once. ± gives the uncertainty stated by the source.

As for `CCCCCl`, the viscosity reads like this: (298.15 K, 101 kPa) 0.428 mPa·s; (318.15 K, 101 kPa) 0.356 mPa·s; (323.15 K, 101 kPa) 0.34 mPa·s.

Turning to `CCCC[N+]1(C)CCCC1.N#C[S-]`, the viscosity runs as follows: (298.15 K, 101 kPa) 109.5 ± 23 mPa·s; (308.15 K, 101 kPa) 70.36 ± 6.5 mPa·s; (318.15 K, 101 kPa) 47.79 ± 3 mPa·s.

As to `CCCC[n+]1ccn(C)c1.N#C[S-]`, the viscosity runs as follows: (298.15 K, 100 kPa) 57.4 ± 1.8 mPa·s and 62.81 ± 3.2 mPa·s; (308.15 K, 100 kPa) 37.36 ± 2 mPa·s and 40.56 ± 2.1 mPa·s; (318.15 K, 100 kPa) 25.8 ± 1.4 mPa·s.

For the compound `CCCNCCC`, the viscosity was 0.504 ± 0.1 mPa·s and 0.5042 ± 0.15 mPa·s (2×) (298.15 K, 100 kPa); 0.503 ± 0.005 mPa·s (298.15 K, 101.33 kPa); 0.471 ± 0.1 mPa·s and 0.4706 ± 0.15 mPa·s (2×) (303.15 K, 100 kPa); 0.444 ± 0.1 mPa·s and 0.4444 ± 0.15 mPa·s (2×) (308.15 K, 100 kPa); 0.444 ± 0.005 mPa·s (308.15 K, 101.33 kPa); 0.386 ± 0.004 mPa·s (318.15 K, 101.33 kPa).

Consider `CCNC(C)=O`, for which the viscosity (298.16 K, 101 kPa) is 5.89 ± 0.05 mPa·s.

For the compound `CCOC(=O)[C@@H](O)[C@H](O)C(=O)OCC`, the viscosity runs as follows: (293.15 K, 101 kPa) 221.3 ± 4.6 mPa·s; (298.15 K, 101 kPa) 137.7 ± 2 mPa·s and 137.7 ± 2.1 mPa·s; (303.15 K, 101 kPa) 90.07 ± 0.93 mPa·s and 90.07 ± 1 mPa·s; (308.15 K, 101 kPa) 61.58 ± 0.47 mPa·s and 61.58 ± 0.56 mPa·s; (313.15 K, 101 kPa) 43.68 ± 0.34 mPa·s and 43.68 ± 0.4 mPa·s; (318.15 K, 101 kPa) 32.1 ± 0.25 mPa·s and 32.1 ± 0.29 mPa·s. Further, where the note is “323.15 K, 101 kPa”, the viscosity was 24.37 ± 0.19 mPa·s and 24.37 ± 0.22 mPa·s.

As to `CCOC(=O)c1ccccc1`, the viscosity by setting is: (293.15 K, 101.33 kPa) 2.013 ± 0.052 mPa·s and 2.21 ± 0.02 mPa·s; (298.15 K, 101.33 kPa) 1.954 ± 0.025 mPa·s and 1.936 ± 0.023 mPa·s; (303.15 K, 101.33 kPa) 1.597 ± 0.041 mPa·s and 1.77 ± 0.022 mPa·s and 1.811 ± 0.016 mPa·s; (308 K, 101.3 kPa) 1.593 ± 0.16 mPa·s; (308.15 K, 101.33 kPa) 1.61 ± 0.021 mPa·s and 1.591 ± 0.019 mPa·s; (313 K, 101.3 kPa) 1.446 ± 0.14 mPa·s. The viscosity was 1.446 ± 0.035 mPa·s and 1.463 ± 0.031 mPa·s and 1.461 ± 0.022 mPa·s (313.15 K, 101 kPa); 1.284 ± 0.033 mPa·s and 1.453 ± 0.018 mPa·s (313.15 K, 101.33 kPa); 1.339 ± 0.13 mPa·s (318 K, 101.3 kPa); 1.339 ± 0.033 mPa·s and 1.35 ± 0.042 mPa·s (318.15 K, 101 kPa); 1.332 ± 0.016 mPa·s (318.15 K, 101.33 kPa); 1.254 ± 0.13 mPa·s (323 K, 101.3 kPa). This compound also displayed a viscosity (323.15 K, 101 kPa) of 1.254 ± 0.031 mPa·s and a viscosity (323.15 K, 101.33 kPa) of 1.058 ± 0.027 mPa·s.

For `CCS(=O)CC`, the viscosity reads like this: (298.15 K, 101 kPa) 2.32 ± 0.05 mPa·s; (303.15 K, 101 kPa) 2.1 ± 0.04 mPa·s; (308.15 K, 101 kPa) 1.88 ± 0.04 mPa·s; (313.15 K, 101 kPa) 1.74 ± 0.04 mPa·s; (318.15 K, 101 kPa) 1.59 ± 0.03 mPa·s; (323.15 K, 101 kPa) 1.31 ± 0.03 mPa·s.

Consider `CCn1cc[n+](C)c1.N#C[S-]`, for which the viscosity was 26.31 ± 0.54 mPa·s (293.15 K, 101 kPa); 23.06 ± 1.1 mPa·s (298.15 K, 100 kPa); 19.68 ± 0.93 mPa·s (303.15 K, 100 kPa); 19.03 ± 0.49 mPa·s (303.15 K, 101 kPa); 16.97 ± 0.8 mPa·s (308.15 K, 100 kPa); 14.54 ± 0.69 mPa·s (2×) and 16.97 ± 0.8 mPa·s (313.15 K, 100 kPa). Moreover, the viscosity by setting is: (313.15 K, 101 kPa) 14.3 ± 0.46 mPa·s; (318.15 K, 100 kPa) 12.98 ± 0.61 mPa·s (2×) and 14.54 ± 0.69 mPa·s; (323.15 K, 100 kPa) 11.49 ± 0.54 mPa·s; (323.15 K, 101 kPa) 11.1 ± 0.45 mPa·s.

Compound `CNS(C)(=O)=O` displayed a viscosity (303.15 K, 101.33 kPa) of 8.242 ± 0.21 mPa·s.

Turning to `COC(=O)c1ccccc1O`, for the setting “303.15 K, 101 kPa”, the viscosity came to 2.44 ± 0.028 mPa·s.

In the case of `Cc1cccc([N+](=O)[O-])c1`, the viscosity (308.15 K, 101.33 kPa) was 1.692 ± 0.01 mPa·s.

As to `Cc1ccccc1[N+](=O)[O-]`, the viscosity came to 2.1 ± 0.021 mPa·s (298.15 K, 101 kPa); 2.089 ± 0.021 mPa·s (298.15 K, 101.33 kPa); 1.727 ± 0.011 mPa·s (308.15 K, 101.33 kPa); 1.348 ± 0.013 mPa·s (323.15 K, 101.33 kPa).

Where the note is “298.15 K, 101 kPa”, `N#CCc1ccccc1` returned a viscosity of 1.868 ± 0.045 mPa·s.

Turning to `OC1CCCCCCC1`, the viscosity reads like this: (293.15 K, 100 kPa) 210 ± 10 mPa·s; (298.15 K, 100 kPa) 143 ± 5.6 mPa·s; (303.15 K, 100 kPa) 102.5 ± 3.8 mPa·s; (308.15 K, 100 kPa) 72 ± 3.2 mPa·s; (313.15 K, 100 kPa) 55 ± 3.1 mPa·s; (318.15 K, 100 kPa) 40 ± 3.1 mPa·s.

`OCC(F)(F)C(F)F`: the viscosity is 4.861 ± 0.1 mPa·s (298.15 K, 100 kPa) and 2.156 ± 0.046 mPa·s (323.15 K, 100 kPa).

For the compound `c1cscn1`, the viscosity (298.15 K, 101 kPa) was 1.008 ± 0.027 mPa·s.

What is called viscosity is the resistance of a fluid to flow. Read a low viscosity as easy flow.

Source of the values: the CheMixHub viscosity set.
